# The source made the active and inactive calls.
# Experiments:
# [1] = target: T1, Cyclin-dependent kinase-like 5 (Homo sapiens, UniProt O76039)
# T1 sequence (O76039 whole entry): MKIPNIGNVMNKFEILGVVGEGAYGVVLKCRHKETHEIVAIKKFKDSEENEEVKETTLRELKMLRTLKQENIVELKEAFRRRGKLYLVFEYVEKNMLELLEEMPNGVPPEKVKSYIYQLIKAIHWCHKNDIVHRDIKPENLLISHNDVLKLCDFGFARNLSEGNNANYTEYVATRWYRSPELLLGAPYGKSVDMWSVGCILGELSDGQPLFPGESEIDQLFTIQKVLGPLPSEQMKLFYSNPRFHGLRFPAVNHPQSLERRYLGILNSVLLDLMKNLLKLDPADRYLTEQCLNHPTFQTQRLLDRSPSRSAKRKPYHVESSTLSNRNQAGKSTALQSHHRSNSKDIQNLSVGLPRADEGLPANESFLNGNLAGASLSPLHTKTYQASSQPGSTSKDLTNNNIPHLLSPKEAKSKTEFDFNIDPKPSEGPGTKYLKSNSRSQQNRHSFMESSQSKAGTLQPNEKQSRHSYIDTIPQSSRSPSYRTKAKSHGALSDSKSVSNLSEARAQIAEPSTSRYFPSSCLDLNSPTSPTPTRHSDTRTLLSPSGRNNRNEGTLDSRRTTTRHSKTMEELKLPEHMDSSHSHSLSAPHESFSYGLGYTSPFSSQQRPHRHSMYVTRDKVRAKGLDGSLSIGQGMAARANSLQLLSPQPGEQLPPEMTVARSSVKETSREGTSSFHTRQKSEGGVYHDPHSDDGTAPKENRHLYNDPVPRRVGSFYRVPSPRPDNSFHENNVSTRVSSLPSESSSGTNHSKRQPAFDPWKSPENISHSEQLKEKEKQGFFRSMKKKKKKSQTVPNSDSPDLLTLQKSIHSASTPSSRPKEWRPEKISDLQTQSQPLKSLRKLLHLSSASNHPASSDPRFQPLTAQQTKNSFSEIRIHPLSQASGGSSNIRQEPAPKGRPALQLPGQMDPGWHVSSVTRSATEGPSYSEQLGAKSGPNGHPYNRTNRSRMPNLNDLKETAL
# [2] = target: Guanine nucleotide-binding protein G(i) subunit alpha-2 (Homo sapiens, UniProt P04899)
# Chain of Guanine nucleotide-binding protein G(i) subunit alpha-2 (P04899 whole entry): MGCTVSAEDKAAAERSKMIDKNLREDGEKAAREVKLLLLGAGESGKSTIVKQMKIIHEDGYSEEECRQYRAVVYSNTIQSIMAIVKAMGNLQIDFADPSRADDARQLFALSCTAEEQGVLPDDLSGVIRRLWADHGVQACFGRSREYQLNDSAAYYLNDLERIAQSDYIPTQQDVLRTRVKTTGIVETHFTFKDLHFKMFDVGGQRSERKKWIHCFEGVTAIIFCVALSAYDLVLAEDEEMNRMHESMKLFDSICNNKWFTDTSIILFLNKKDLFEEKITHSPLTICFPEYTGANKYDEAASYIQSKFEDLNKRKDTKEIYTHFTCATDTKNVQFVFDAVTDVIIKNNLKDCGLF
# [3] = target: T2, Phosphatidylinositol 5-phosphate 4-kinase type-2 alpha (Homo sapiens, UniProt P48426)
# T2 sequence (P48426 whole entry): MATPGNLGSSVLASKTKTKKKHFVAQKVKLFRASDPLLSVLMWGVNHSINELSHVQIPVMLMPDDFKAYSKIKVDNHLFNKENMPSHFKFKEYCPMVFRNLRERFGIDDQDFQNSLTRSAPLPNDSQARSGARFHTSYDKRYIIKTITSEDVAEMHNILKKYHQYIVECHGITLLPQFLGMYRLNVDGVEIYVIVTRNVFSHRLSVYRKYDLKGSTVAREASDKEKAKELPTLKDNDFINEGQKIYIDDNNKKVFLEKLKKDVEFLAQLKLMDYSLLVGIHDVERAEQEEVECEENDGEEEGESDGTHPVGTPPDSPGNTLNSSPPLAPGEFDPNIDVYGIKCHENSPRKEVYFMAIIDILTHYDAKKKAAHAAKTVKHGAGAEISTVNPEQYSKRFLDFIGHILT
# [4] = target: Proto-oncogene tyrosine-protein kinase receptor Ret (Homo sapiens, UniProt P07949)
# [5] = target: Ephrin type-A receptor 7 (Homo sapiens, UniProt Q15375)
# Chain of Ephrin type-A receptor 7 (Q15375 whole entry): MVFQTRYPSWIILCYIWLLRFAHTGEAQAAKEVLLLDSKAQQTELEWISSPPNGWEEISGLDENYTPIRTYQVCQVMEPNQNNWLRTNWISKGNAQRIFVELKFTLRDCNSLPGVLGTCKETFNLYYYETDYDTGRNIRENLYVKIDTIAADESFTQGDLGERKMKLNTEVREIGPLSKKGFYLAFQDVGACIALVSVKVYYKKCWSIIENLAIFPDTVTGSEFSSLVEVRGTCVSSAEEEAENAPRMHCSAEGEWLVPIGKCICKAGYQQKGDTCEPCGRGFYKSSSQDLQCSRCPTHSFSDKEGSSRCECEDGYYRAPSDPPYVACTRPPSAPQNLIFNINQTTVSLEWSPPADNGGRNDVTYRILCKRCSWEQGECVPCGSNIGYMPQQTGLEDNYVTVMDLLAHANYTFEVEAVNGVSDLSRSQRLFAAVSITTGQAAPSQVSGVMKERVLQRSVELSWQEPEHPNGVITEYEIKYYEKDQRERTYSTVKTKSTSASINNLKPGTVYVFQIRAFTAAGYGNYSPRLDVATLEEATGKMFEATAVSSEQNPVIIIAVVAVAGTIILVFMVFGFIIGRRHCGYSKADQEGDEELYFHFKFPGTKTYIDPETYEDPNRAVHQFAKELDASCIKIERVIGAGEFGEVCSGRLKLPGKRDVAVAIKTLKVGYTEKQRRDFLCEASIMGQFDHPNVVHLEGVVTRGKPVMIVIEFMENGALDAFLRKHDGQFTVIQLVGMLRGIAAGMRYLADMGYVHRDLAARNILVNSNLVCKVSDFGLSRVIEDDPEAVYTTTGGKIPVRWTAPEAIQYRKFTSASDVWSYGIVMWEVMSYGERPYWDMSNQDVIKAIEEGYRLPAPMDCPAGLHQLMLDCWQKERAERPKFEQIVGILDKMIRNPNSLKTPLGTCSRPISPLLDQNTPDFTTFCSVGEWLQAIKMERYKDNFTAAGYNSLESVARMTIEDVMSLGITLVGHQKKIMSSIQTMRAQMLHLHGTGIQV
# [6] = target: T3, Inhibitor of nuclear factor kappa-B kinase subunit epsilon (Homo sapiens, UniProt Q14164)
# T3 sequence (Q14164 whole entry): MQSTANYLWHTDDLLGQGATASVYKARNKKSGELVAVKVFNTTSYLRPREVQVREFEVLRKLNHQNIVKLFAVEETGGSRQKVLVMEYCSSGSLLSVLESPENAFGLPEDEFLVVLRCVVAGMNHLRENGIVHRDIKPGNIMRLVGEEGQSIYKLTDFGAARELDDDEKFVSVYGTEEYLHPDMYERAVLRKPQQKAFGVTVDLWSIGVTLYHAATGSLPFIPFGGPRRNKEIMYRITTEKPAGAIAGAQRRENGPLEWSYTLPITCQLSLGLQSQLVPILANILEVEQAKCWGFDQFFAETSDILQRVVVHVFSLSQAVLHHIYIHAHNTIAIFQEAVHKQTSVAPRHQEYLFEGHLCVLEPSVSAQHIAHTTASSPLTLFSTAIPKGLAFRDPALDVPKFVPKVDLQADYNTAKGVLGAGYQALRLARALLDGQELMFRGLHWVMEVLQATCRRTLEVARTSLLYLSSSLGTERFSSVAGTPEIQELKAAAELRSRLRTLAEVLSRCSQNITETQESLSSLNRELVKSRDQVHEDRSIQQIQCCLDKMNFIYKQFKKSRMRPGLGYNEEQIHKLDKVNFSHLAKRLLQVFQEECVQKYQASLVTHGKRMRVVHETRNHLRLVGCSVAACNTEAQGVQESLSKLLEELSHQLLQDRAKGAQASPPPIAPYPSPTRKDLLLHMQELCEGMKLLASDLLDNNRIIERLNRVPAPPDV
# [7] = target: Serine/threonine-protein kinase MRCK gamma (Homo sapiens, UniProt Q6DT37)
# Chain of Serine/threonine-protein kinase MRCK gamma (Q6DT37 whole entry): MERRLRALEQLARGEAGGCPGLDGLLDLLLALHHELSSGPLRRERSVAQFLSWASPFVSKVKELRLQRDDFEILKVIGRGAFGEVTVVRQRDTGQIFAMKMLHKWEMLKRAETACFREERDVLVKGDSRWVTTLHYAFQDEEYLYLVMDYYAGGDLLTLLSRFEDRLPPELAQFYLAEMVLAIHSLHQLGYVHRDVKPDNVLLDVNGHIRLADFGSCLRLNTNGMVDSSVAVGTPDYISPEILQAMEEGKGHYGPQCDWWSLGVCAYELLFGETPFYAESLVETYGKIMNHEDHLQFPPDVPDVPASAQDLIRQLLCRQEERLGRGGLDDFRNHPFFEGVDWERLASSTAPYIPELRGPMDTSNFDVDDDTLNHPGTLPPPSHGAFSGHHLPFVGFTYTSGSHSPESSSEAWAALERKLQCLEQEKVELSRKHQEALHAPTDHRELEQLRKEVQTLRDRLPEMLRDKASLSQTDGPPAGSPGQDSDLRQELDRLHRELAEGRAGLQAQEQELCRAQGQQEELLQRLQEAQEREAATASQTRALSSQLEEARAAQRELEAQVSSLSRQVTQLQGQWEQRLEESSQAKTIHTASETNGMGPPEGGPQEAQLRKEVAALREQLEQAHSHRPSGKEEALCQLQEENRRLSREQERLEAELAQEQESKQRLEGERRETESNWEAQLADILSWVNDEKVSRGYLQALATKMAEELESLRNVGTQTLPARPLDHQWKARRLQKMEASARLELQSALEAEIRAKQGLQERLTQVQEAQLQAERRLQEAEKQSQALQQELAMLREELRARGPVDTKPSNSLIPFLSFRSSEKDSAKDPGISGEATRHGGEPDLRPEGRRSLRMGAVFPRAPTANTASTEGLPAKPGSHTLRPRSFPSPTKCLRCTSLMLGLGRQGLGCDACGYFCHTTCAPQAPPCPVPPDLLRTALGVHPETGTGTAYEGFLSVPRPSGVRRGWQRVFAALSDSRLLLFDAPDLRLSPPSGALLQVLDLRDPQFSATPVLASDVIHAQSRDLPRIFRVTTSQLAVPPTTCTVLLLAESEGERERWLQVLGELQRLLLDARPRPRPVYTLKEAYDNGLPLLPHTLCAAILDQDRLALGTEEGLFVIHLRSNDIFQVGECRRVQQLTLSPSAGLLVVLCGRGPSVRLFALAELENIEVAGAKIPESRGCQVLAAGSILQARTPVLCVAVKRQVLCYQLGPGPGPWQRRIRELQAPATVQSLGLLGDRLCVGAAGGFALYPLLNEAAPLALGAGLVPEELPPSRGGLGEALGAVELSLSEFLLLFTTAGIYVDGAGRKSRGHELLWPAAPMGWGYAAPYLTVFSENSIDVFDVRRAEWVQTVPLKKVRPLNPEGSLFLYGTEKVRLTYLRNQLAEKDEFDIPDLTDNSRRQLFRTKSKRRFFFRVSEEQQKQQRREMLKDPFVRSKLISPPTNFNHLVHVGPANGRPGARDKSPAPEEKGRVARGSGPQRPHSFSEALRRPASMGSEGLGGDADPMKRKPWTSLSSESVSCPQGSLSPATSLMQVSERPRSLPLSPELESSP
# [8] = target: Choline-phosphate cytidylyltransferase A (Homo sapiens, UniProt P49585)
# Chain of Choline-phosphate cytidylyltransferase A (P49585 whole entry): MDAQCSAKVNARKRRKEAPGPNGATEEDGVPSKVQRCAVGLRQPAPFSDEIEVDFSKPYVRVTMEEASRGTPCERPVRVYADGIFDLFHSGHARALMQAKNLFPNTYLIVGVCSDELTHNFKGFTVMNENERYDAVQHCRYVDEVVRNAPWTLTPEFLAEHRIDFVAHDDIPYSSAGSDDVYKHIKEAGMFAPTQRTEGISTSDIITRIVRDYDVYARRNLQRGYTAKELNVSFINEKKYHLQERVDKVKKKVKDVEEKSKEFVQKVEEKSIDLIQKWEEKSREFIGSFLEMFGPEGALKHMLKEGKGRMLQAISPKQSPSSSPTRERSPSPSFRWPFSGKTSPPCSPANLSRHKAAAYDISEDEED
# [9] = target: T4, Adenine phosphoribosyltransferase (Homo sapiens, UniProt P07741)
# T4 sequence (P07741 whole entry): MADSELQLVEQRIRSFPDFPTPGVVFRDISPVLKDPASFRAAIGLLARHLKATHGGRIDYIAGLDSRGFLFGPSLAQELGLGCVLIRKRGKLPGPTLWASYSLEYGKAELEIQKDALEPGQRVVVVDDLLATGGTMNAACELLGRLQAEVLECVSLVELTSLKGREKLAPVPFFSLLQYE
# [10] = target: Phosphatidylethanolamine-binding protein 1 (Homo sapiens, UniProt P30086)
# Chain of Phosphatidylethanolamine-binding protein 1 (P30086 whole entry): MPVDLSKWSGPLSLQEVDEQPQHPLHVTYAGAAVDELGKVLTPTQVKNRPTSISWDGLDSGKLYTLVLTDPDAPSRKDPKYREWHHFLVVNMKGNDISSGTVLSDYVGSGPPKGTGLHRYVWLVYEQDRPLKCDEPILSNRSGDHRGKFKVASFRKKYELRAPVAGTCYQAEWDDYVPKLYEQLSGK
# [11] = target: Dual specificity protein kinase CLK2 (Homo sapiens, UniProt P49760)
# Chain of Dual specificity protein kinase CLK2 (P49760 whole entry): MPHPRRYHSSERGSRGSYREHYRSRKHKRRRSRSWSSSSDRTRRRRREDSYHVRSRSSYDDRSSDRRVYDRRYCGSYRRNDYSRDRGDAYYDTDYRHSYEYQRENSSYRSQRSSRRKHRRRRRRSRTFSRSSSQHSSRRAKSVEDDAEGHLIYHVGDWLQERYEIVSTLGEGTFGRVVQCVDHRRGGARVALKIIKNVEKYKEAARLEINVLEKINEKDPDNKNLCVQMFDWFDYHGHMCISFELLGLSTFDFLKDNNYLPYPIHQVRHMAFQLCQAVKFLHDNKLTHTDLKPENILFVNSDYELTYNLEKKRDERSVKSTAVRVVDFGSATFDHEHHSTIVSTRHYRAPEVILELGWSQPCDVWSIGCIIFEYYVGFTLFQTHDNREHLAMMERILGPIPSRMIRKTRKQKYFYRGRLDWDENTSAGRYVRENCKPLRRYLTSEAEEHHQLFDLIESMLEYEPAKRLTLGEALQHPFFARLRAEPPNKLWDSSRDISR
# [12] = target: Serine/threonine-protein kinase Nek7 (Homo sapiens, UniProt Q8TDX7)
# Chain of Serine/threonine-protein kinase Nek7 (Q8TDX7 whole entry): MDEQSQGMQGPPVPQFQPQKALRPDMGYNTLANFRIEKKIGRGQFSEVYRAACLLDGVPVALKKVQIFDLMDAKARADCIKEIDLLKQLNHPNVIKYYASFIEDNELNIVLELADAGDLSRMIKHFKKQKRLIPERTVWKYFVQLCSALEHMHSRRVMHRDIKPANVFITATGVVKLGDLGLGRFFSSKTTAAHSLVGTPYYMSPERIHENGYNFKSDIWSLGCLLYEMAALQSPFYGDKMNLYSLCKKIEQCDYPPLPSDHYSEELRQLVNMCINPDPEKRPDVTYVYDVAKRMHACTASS
# [13] = target: Misshapen-like kinase 1 (Homo sapiens, UniProt Q8N4C8)
# Further: in the data inactive means no Kd found up to 30 µM.
SMILES,Kd [1],Kd [2],Kd [3],Kd [4],Kd [5],Kd [6],Kd [7],Kd [8],Kd [9],Kd [10],Kd [11],Kd [12],Kd [13]
CN1N=C(N)c2cn([C@@H]3O[C@H](COP(=O)(O)O)[C@@H](O)[C@H]3O)c3ncnc1c23 [TRICIRIBINE PHOSPHATE],–,–,> 30 µM (inactive),> 30 µM (inactive),–,> 30 µM (inactive),> 30 µM (inactive),> 30 µM (inactive),> 30 µM (inactive),> 30 µM (inactive),–,> 30 µM (inactive),–
CCCS(=O)(=O)Nc1ccc(F)c(C(=O)c2c[nH]c3ncc(-c4ccc(Cl)cc4)cc23)c1F [VEMURAFENIB],–,> 30 µM (inactive),> 30 µM (inactive),> 30 µM (inactive),–,> 30 µM (inactive),> 30 µM (inactive),–,> 30 µM (inactive),> 30 µM (inactive),> 30 µM (inactive),> 30 µM (inactive),–
Cc1ccc(S(=O)(=O)Nc2nc3ccccc3nc2Nc2ccc3nsnc3c2)cc1,> 30 µM (inactive),> 30 µM (inactive),> 30 µM (inactive),> 30 µM (inactive),> 30 µM (inactive),> 30 µM (inactive),–,–,–,–,> 30 µM (inactive),> 30 µM (inactive),–
Nc1nc(N)c2nc(-c3cccc(O)c3)c(-c3cccc(O)c3)nc2n1 [TG100-115],–,> 30 µM (inactive),7.02 µM,–,–,–,–,–,–,–,–,–,–
CCn1c(=O)c(-c2cc[nH]n2)cc2c(C)nc(N)nc21 [VOXTALISIB],–,> 30 µM (inactive),> 30 µM (inactive),> 30 µM (inactive),–,–,> 30 µM (inactive),–,> 30 µM (inactive),> 30 µM (inactive),–,–,–
C[C@@H](c1ccc2nccn2c1)n1nnc2ncc(-c3cnn(C)c3)nc21 [SAVOLITINIB],–,–,> 30 µM (inactive),> 30 µM (inactive),–,> 30 µM (inactive),–,–,> 30 µM (inactive),> 30 µM (inactive),> 30 µM (inactive),–,> 30 µM (inactive)
CN1CCN(c2ccc3nc(-c4c(N)c5c(F)cccc5[nH]c4=O)[nH]c3c2)CC1 [DOVITINIB],–,–,> 30 µM (inactive),–,–,–,–,> 30 µM (inactive),–,–,–,–,–
CN(C)C(=O)c1cc2cnc(Nc3ccc(N4CCNCC4)cn3)nc2n1C1CCCC1 [RIBOCICLIB],> 30 µM (inactive),> 30 µM (inactive),> 30 µM (inactive),> 30 µM (inactive),> 30 µM (inactive),> 30 µM (inactive),> 30 µM (inactive),> 30 µM (inactive),–,> 30 µM (inactive),–,> 30 µM (inactive),–
C1=C/COCc2cc(ccc2OCCN2CCCC2)Nc2nccc(n2)-c2cccc(c2)COC/1 [PACRITINIB],> 30 µM (inactive),–,–,> 30 µM (inactive),> 30 µM (inactive),0.715 µM (active),–,–,> 30 µM (inactive),> 30 µM (inactive),–,–,–
N[C@@H]1CCCN(c2c(/C=C3\SC(=O)NC3=O)cccc2-c2ccccc2)C1,> 30 µM (inactive),> 30 µM (inactive),> 30 µM (inactive),> 30 µM (inactive),> 30 µM (inactive),> 30 µM (inactive),> 30 µM (inactive),> 30 µM (inactive),> 30 µM (inactive),> 30 µM (inactive),> 30 µM (inactive),–,–
Cn1ncc(Cl)c1-c1cc(C(=O)N[C@H](CN)Cc2cccc(F)c2)sc1Cl [AFURESERTIB],–,> 30 µM (inactive),–,> 30 µM (inactive),> 30 µM (inactive),–,> 30 µM (inactive),–,–,> 30 µM (inactive),–,> 30 µM (inactive),–
Cc1cc(-c2cc(O)ccc2Cl)cc2nnc(Nc3ccc(OCCN4CCCC4)cc3)nc12,> 30 µM (inactive),–,> 30 µM (inactive),0.001 µM (active),> 30 µM (inactive),> 30 µM (inactive),> 30 µM (inactive),–,> 30 µM (inactive),–,> 30 µM (inactive),> 30 µM (inactive),–
Cc1cn(-c2cc(NC(=O)c3ccc(C)c(Nc4nccc(-c5cccnc5)n4)c3)cc(C(F)(F)F)c2)cn1 [NILOTINIB],–,–,> 30 µM (inactive),–,–,–,–,–,–,> 30 µM (inactive),–,–,–
CC(C)Nc1cc(-c2c[nH]c(C(=O)N[C@H](CO)c3cccc(Cl)c3)c2)c(Cl)cn1 [ULIXERTINIB],> 30 µM (inactive),–,> 30 µM (inactive),> 30 µM (inactive),–,> 30 µM (inactive),> 30 µM (inactive),–,> 30 µM (inactive),–,–,> 30 µM (inactive),–

# Next, values leading:
Kd [1],Kd [2],Kd [3],Kd [4],Kd [5],Kd [6],Kd [7],Kd [8],Kd [9],Kd [10],Kd [11],Kd [12],Kd [13],SMILES
> 30 µM (inactive),> 30 µM (inactive),> 30 µM (inactive),> 30 µM (inactive),> 30 µM (inactive),> 30 µM (inactive),–,–,–,–,–,–,–,C[C@@H](Nc1cc(F)cc(F)c1)c1cc(C(=O)N(C)C)cc2c(=O)cc(N3CCOCC3)oc12 [AZD-8186]
–,> 30 µM (inactive),–,> 30 µM (inactive),> 30 µM (inactive),> 30 µM (inactive),> 30 µM (inactive),> 30 µM (inactive),> 30 µM (inactive),> 30 µM (inactive),> 30 µM (inactive),–,–,Cc1cc([C@@H](C)Nc2ccccc2C(=O)O)c2nc(N3CCOCC3)cc(=O)n2c1 [AZD-6482]
–,> 30 µM (inactive),–,–,> 30 µM (inactive),> 30 µM (inactive),> 30 µM (inactive),> 30 µM (inactive),> 30 µM (inactive),> 30 µM (inactive),> 30 µM (inactive),> 30 µM (inactive),–,CCN1CCN(Cc2ccc(-c3cc4c(N[C@H](C)c5ccccc5)ncnc4[nH]3)cc2)CC1 [AEE-788]
–,–,–,–,–,–,–,–,> 30 µM (inactive),> 30 µM (inactive),–,–,–,CCn1c(-c2nonc2N)nc2c(C#CC(C)(C)O)ncc(OC[C@H]3CCCNC3)c21 [GSK-690693]
–,–,> 30 µM (inactive),–,–,–,–,> 30 µM (inactive),> 30 µM (inactive),> 30 µM (inactive),–,> 30 µM (inactive),–,Cc1nc(N)sc1-c1ccnc(Nc2ccc(N3CCOCC3)cc2)n1 [CYC-116]
–,> 30 µM (inactive),–,> 30 µM (inactive),–,> 30 µM (inactive),–,–,–,> 30 µM (inactive),> 30 µM (inactive),–,> 30 µM (inactive),CNC(=O)c1ccc(C)c(-n2c(C)cc(OCc3ccc(F)cc3F)c(Br)c2=O)c1 [PH-797804]

# Reference: ChEMBL document CHEMBL3991601, “The target landscape of clinical kinase drugs” (Science, 2017)
